Experimental data taken from PMC2248166, “Quantitative peptide binding motifs for 19 human and mouse MHC class I molecules derived using positional scanning combinatorial peptide libraries” (Immunome Research, 2008).

Columns and labels:
Format in all cases: binding
H-2 K^d = H-2 K^d (Mus musculus, UniProt P01902)
HLA A*6802 = HLA A*6802 (Homo sapiens, UniProt P04439, A269V/D140Y/D185E/E176V/E277Q/E87N/F33Y/G231S/I121R/I166T/I218V/L180W/L300P/L318F/N151K/P208A/P217A/Q86R/R138H/R169H/S129P/T345S/V36M)
HLA A*3001 = HLA A*3001 (Homo sapiens, UniProt P04439, D140H/D185E/E176W/F33S/G80R/H175R/K168Q/R138E/R41S); assay: biochemical
H-2 D^d = H-2 D^d (Mus musculus, UniProt P01900)
HLA B*1501 = HLA B*1501 (Homo sapiens, UniProt P01889, A329T/A93T/A95T/C349S/D201E/D98Y/E187L/E204Q/E69M/E70A/K202T/N87E/Q94N/R155S/R180W/S121R/S35A/S48A/V306I/V36M/Y140S/Y91S); assay: biochemical
HLA B*1503 = HLA B*1503 (Homo sapiens, UniProt P01889, A329T/A93T/A95T/C349S/D201E/D98Y/E187L/E204Q/K202T/N87E/Q94N/R155S/R180L/S121R/S35A/V306I/V36M/Y140S/Y91S); assay: biochemical
HLA B*5801 = HLA B*5801 (Homo sapiens, UniProt P01889, A329T/C349S/D201E/D98Y/E176V/E187L/E204Q/E69T/G107R/I218V/I90N/K202T/L105A/L119I/N104I/N87E/Q89R/Q94S/R106L/R155S/R180L/R86G/S101N/S121R/S35A/S48A/T118I/V127L/V306I/V36M/Y140S/Y91M)
HLA B*5101 = HLA B*5101 (Homo sapiens, UniProt P01889, A329T/A93T/A95T/C349S/D138N/D201E/D98Y/E187L/E204Q/E69T/G107R/I218V/K202T/L105A/L119W/N104I/Q94N/R106L/R155S/R180L/S101N/S121T/S35A/S48A/V306I/V36M/Y195H/Y91F)
HLA B*0801 = HLA B*0801 (Homo sapiens, UniProt P01889, A93T/A95T/D138N/E176V/E187T/K202T/Q94N/R180D/S35A/V36M/Y33D/Y91F); assay: biochemical
H-2 D^b = H-2 D^b (Mus musculus, UniProt P01899)
HLA B*3501 = HLA B*3501 (Homo sapiens, UniProt P01889, A329T/A93T/A95T/C349S/D201E/D98Y/E176V/E187L/E204Q/E69T/I218V/K202T/L119I/Q94N/R155S/R180L/S121R/S35A/S48A/T118I/V127L/V306I/V36M/Y140S/Y91F)
HLA B*5301 = HLA B*5301 (Homo sapiens, UniProt P01889, A329T/A93T/A95T/C349S/D201E/D98Y/E176V/E187L/E204Q/E69T/G107R/I218V/K202T/L105A/L119I/N104I/Q94N/R106L/R155S/R180L/S101N/S121R/S35A/S48A/T118I/V127L/V306I/V36M/Y140S/Y91F)
HLA A*3201 = HLA A*3201 (Homo sapiens, UniProt P04439, A270S/D101S/D185E/E176V/E277Q/F133L/G103R/G107R/G231S/H175R/I121M/I218V/I322F/K168Q/L105A/L300P/L318F/M331R/P208A/P217A/Q94H/R106L/R138Q/S129P/T104I/T323A/T345S/V100E/V321M/V358M); assay: biochemical
HLA B*5401 = HLA B*5401 (Homo sapiens, UniProt P01889, A329T/C349S/D138N/D201E/E176V/E187T/E204Q/E69G/I76V/K202T/L119W/R155S/R180L/S121T/S35A/S48A/V127L/V306I/V36M/Y140L)
HLA B*5802 = HLA B*5802 (Homo sapiens, UniProt P01889, A329T/C349S/D201E/D98Y/E176V/E187L/E204Q/E69T/G107R/I218V/I90N/K202T/L105A/N104I/N87E/Q89R/Q94S/R106L/R155S/R180L/R86G/S101N/S121W/S35A/S48A/V127L/V306I/V36M/Y140S/Y91M)
H-2 K^k = H-2 K^k (Mus musculus, UniProt P04223)
H-2 K^k, sequence (P01887 21-119): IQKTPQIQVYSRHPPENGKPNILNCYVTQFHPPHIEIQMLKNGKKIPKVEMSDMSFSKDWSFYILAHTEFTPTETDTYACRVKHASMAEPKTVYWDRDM
H-2 K^k, sequence (P04223 22-369): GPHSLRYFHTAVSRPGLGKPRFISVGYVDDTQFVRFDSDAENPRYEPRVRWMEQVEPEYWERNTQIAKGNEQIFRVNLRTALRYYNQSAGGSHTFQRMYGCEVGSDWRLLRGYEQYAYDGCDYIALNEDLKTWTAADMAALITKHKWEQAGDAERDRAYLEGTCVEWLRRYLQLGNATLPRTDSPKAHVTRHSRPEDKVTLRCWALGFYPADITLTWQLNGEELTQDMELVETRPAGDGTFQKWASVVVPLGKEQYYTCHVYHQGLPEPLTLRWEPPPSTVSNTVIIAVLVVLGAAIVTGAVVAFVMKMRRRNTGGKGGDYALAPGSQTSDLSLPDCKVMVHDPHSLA

H-2 D^d, sequence (P01900 whole entry, looked up): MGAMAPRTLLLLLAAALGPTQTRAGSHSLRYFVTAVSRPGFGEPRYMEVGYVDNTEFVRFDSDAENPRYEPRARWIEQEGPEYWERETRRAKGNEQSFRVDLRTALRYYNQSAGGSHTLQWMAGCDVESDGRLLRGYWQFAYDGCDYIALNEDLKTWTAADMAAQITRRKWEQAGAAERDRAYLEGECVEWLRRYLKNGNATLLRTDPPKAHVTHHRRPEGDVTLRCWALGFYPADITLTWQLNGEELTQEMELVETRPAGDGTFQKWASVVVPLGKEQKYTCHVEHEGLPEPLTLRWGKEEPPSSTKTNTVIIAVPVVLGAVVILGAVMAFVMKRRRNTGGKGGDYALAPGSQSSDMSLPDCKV
H-2 D^b, sequence (P01887 21-119): as the sequence (P01887 21-119) above
H-2 D^b, sequence (P01899 25-362): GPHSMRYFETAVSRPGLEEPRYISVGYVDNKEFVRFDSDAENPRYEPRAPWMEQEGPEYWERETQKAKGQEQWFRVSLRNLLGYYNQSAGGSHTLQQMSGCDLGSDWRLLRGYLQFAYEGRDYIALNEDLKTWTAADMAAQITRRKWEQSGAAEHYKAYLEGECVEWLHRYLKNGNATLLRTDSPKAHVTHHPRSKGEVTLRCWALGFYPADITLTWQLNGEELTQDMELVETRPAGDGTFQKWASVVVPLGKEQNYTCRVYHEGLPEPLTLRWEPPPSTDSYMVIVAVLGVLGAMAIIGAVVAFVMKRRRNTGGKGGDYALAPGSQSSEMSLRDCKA
H-2 K^d, sequence (P01887 21-119): as the sequence (P01887 21-119) above
H-2 K^d, sequence (P01902 22-368): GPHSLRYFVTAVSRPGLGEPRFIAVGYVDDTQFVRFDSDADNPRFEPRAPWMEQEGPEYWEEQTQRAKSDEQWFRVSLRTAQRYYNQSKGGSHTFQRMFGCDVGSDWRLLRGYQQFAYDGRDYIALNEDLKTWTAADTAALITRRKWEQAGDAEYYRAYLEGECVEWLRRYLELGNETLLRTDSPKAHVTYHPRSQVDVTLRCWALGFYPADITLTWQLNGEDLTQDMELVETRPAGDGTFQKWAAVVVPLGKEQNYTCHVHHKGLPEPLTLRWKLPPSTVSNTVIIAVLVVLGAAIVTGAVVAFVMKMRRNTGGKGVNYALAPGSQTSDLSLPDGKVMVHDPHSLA

Sequence | Normalized average relative binding affinity(ARB) (H-2 K^d) | Normalized average relative binding affinity(ARB) (HLA A*6802) | Normalized average relative binding affinity(ARB) (HLA A*3001) | Normalized average relative binding affinity(ARB) (H-2 D^d) | Normalized average relative binding affinity(ARB) (HLA B*1501) | Normalized average relative binding affinity(ARB) (HLA B*1503) | Normalized average relative binding affinity(ARB) (HLA B*5801) | Normalized average relative binding affinity(ARB) (HLA B*5101) | Normalized average relative binding affinity(ARB) (HLA B*0801) | Normalized average relative binding affinity(ARB) (H-2 D^b) | Normalized average relative binding affinity(ARB) (HLA B*3501) | Normalized average relative binding affinity(ARB) (HLA B*5301) | Normalized average relative binding affinity(ARB) (HLA A*3201) | Normalized average relative binding affinity(ARB) (HLA B*5401) | Normalized average relative binding affinity(ARB) (HLA B*5802) | Normalized average relative binding affinity(ARB) (H-2 K^k)
XXXXXEXXX [3064.0104] | 0.083 | 0.75 | 0.059 | 0.31 | 0.30 | 0.40 | 0.80 | 0.12 | 0.023 | 0.43 | 0.21 | 0.21 | 0.35 | 0.065 | 0.14 | 0.18
XXXHXXXXX [3064.0067] | 0.22 | 0.30 | 0.45 | 0.53 | 0.19 | 0.29 | 0.40 | 0.18 | 0.26 | 0.29 | 0.16 | 0.089 | 0.32 | 0.21 | 0.32 | 0.13
XXXXLXXXX [3064.0090] | 0.18 | 0.43 | 0.14 | 0.28 | 0.69 | 0.090 | 0.25 | 0.30 | 0.062 | 0.10 | 0.23 | 0.18 | 0.57 | 0.15 | 0.063 | 0.11
XXXYXXXXX [3064.0080] | 0.14 | 0.44 | 0.42 | 1.0 | 0.41 | 0.55 | 0.27 | 0.88 | 0.59 | 0.63 | 0.085 | 0.29 | 0.71 | 0.26 | 0.49 | 0.24
XXXXVXXXX [3064.0098] | 0.24 | 0.51 | 0.35 | 0.25 | 0.56 | 0.24 | 1.0 | 0.36 | 0.019 | 0.021 | 0.22 | 0.18 | 0.47 | 0.042 | 0.87 | 0.18
XXXXXXXGX [3064.0146] | 0.63 | 0.31 | 0.18 | 0.62 | 0.15 | 0.18 | 0.21 | 0.20 | 0.099 | 0.043 | 0.098 | 0.094 | 0.54 | 0.083 | 0.87 | 0.32
XXXXYXXXX [3064.0100] | 0.015 | 0.27 | 0.21 | 0.24 | 0.95 | 0.34 | 0.33 | 0.26 | 0.064 | 0.013 | 0.22 | 0.087 | 0.28 | 0.084 | 0.62 | 0.14
XXXXXHXXX [3064.0107] | 0.31 | 0.11 | 0.16 | 0.48 | 0.28 | 0.25 | 0.40 | 0.33 | 0.12 | 0.36 | 0.26 | 0.30 | 0.50 | 1.0 | 0.27 | 0.20
